Where a name gives a salt, the structure may show the parent alone.
Experiments:
[1] = tested on: A431 cells (human epidermoid carcinoma); assay: In vitro tumor cell proliferation assay (Cell Titer-Glo luminescent cell viability), A431; assay type: cell-based; conditions: A-431, 72 h, 72 hours of drug exposure, ATP luminescence readout, read-out: IC50, anti-proliferative activity (inhibition of cell proliferation)
In short: (§1)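 A431 or BT474 cells were exposed 72 h at 37°C to serially diluted compounds (final 100 μM down to 64 pM, 0.1% DMSO). Viable cells were read by ATP luminescence (CellTiter-Glo) and IC50 values derived.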

[2] = tested on: BT474 (human breast carcinoma); assay: In vitro tumor cell proliferation assay (Cell Titer-Glo luminescent cell viability), BT474; assay type: cell-based; conditions: BT-474, 72 h, BT474 cells, 72 hours of drug exposure, ATP luminescence readout, read-out: IC50, anti-proliferative activity (inhibition of cell proliferation)
In short: as §1

| Compound | IC50 [1] | IC50 [2] |
| --- | --- | --- |
| COC[C@@H]1CCCN1CCn1cc2c(n1)CCc1c-2sc2ncnc(Nc3ccc(F)c(Cl)c3)c12 [Example 31, N-(3-chloro-4-fluorophenyl)-2-{2-[(2S)-2-(methoxymethyl)pyrrolidin-1-yl]ethyl}-4,5-dihydro-2H-pyrimido[5′,4′:4,5]thieno[2,3-e]indazol-6-amine] | ≤ 5 µM | ≤ 5 µM |
| CC(C)N1CCC(Cn2cc3c(n2)CCc2c-3sc3ncnc(Nc4ccc(OCc5cccc(F)c5)c(Cl)c4)c23)CC1 [Example 245, N-{3-chloro-4-[(3-fluorobenzyl)oxy]phenyl}-2-[(1-isopropylpiperidin-4-yl)methyl]-4,5-dihydro-2H-pyrimido[5′,4′:4,5]thieno[2,3-e]indazol-6-amine] | ≤ 5 µM | ≤ 1 µM |
| COCCN1CCN(C(=O)Cn2ncc3c2CCc2c-3sc3ncnc(Nc4ccc(OCc5cccc(F)c5)c(Cl)c4)c23)CC1 [Example 203, N-{3-chloro-4-[(3-fluorobenzyl)oxy]phenyl}-3-{2-[4-(2-methoxyethyl)piperazin-1-yl]-2-oxoethyl}-4,5-dihydro-3H-pyrimido[5′,4′:4,5]thieno[2,3-e]indazol-6-amine] | ≤ 50 µM | ≤ 1 µM |
| CCNC[C@@H](O)Cn1cc2c(n1)CCc1c-2sc2ncnc(Nc3ccc(OCc4cccc(F)c4)c(Cl)c3)c12 [Example 157, (2R)-1-[6-({3-chloro-4-[(3-fluorobenzyl)oxy]phenyl}amino)-4,5-dihydro-2H-pyrimido[5′,4′:4,5]thieno[2,3-e]indazol-2-yl]-3-(ethylamino)propan-2-ol trifluoroacetate (salt)] | ≤ 50 µM | ≤ 1 µM |
| CN1CCN(CCn2cc3c(n2)CCc2c-3sc3ncnc(Nc4ccc(OCc5ccccc5Cl)c(Cl)c4)c23)CC1 [Example 332, N-{3-chloro-4-[(2-chlorobenzyl)oxy]phenyl}-2-[2-(4-methylpiperazin-1-yl)ethyl]-4,5-dihydro-2H-pyrimido[5′,4′:4,5]thieno[2,3-e]indazol-6-amine] | ≤ 5 µM | ≤ 1 µM |
| COc1cccc(COc2ccc(Nc3ncnc4sc5c(c34)CCc3c-5cnn3CCN3CCN(C)CC3)cc2Cl)c1 [Example 318, N-{3-chloro-4-[(3-methoxybenzyl)oxy]phenyl}-3-[2-(4-methylpiperazin-1-yl)ethyl]-4,5-dihydro-3H-pyrimido[5′,4′:4,5]thieno[2,3-e]indazol-6-amine] | ≤ 5 µM | ≤ 5 µM |
| CN(C)CCNC(=O)Cn1ncc2c1CCc1c-2sc2ncnc(Nc3ccc(OCc4cccc(F)c4)c(Cl)c3)c12 [Example 193, 2-[6-({3-chloro-4-[(3-fluorobenzyl)oxy]phenyl}amino)-4,5-dihydro-3H-pyrimido[5′,4′:4,5]thieno[2,3-e]indazol-3-yl]-N-[2-(dimethylamino)ethyl]acetamide] | ≤ 50 µM | ≤ 1 µM |
| O=C(Cn1ncc2c1CCc1c-2sc2ncnc(Nc3ccc(OCc4cccc(F)c4)c(Cl)c3)c12)NCCN1CCOCC1 [Example 197, 2-[6-({3-chloro-4-[(3-fluorobenzyl)oxy]phenyl}amino)-4,5-dihydro-3H-pyrimido[5′,4′:4,5]thieno[2,3-e]indazol-3-yl]-N-(2-morpholin-4-ylethyl)acetamide] | ≤ 50 µM | ≤ 1 µM |
| CN1CCN(CCn2cc3c(n2)CCc2c-3sc3ncnc(Nc4ccc(OCc5cccc(F)c5)c(Cl)c4)c23)CC1 [Example 62, N-{3-chloro-4-[(3-fluorobenzyl)oxy]phenyl}-2-[2-(4-methylpiperazin-1-yl)ethyl]-4,5-dihydro-2H-pyrimido[5′,4′:4,5]thieno[2,3-e]indazol-6-amine] | ≤ 5 µM | ≤ 1 µM |
| OC1CCN(CCn2ncc3c2CCc2c-3sc3ncnc(Nc4ccc5c(cnn5Cc5cccc(F)c5)c4)c23)C1 (centres unmarked) [Example 299, 1-[2-(6-{[1-(3-fluorobenzyl)-1H-indazol-5-yl]amino}-4,5-dihydro-3H-pyrimido[5′,4′:4,5]thieno[2,3-e]indazol-3-yl)ethyl]pyrrolidin-3-ol] | ≤ 5 µM | ≤ 1 µM |
| Fc1cccc(COc2ccc(Nc3ncnc4sc5c(c34)CCc3c-5cnn3CCCN3CCCCC3)cc2Cl)c1 [Example 273] | ≤ 5 µM | ≤ 1 µM |
| CN1CCN(C[C@@H](O)Cn2ncc3c2CCc2c-3sc3ncnc(Nc4ccc(OCc5cccc(F)c5)c(Cl)c4)c23)CC1 [Example 167, (2R)-1-[6-({3-chloro-4-[(3-fluorobenzyl)oxy]phenyl}amino)-4,5-dihydro-3H-pyrimido[5′,4′:4,5]thieno[2,3-e]indazol-3-yl]-3-(4-methylpiperazin-1-yl)propan-2-ol trifluoroacetate (salt)] | ≤ 50 µM | ≤ 1 µM |
| O=C(O)Cn1cc2c(n1)CCc1c-2sc2ncnc(Nc3ccc(OCc4cccc(F)c4)c(Cl)c3)c12 [Example 175, [6-({3-chloro-4-[(3-fluorobenzyl)oxy]phenyl}amino)-4,5-dihydro-2H-pyrimido[5′,4′:4,5]thieno[2,3-e]indazol-2-yl]acetic acid] | ≤ 50 µM | ≤ 5 µM |
| OC[C@@H](O)Cn1cc2c(n1)CCc1c-2sc2ncnc(Nc3ccc(OCc4cccc(F)c4)c(Cl)c3)c12 [Example 75, (S)-3-{6-[3-Chloro-4-(3-fluoro-benzyloxy)-phenylamino]-4,5-dihydro-10-thia-2,3,7,9-tetraaza-cyclopenta[a]fluoren-2-yl}-propane-1,2-diol] | ≤ 5 µM | ≤ 1 µM |
| Fc1ccc(Nc2ncnc3sc4c(c23)CCc2c-4cnn2CCNCCN2CCOCC2)cc1Cl [Example 93, N-(3-chloro-4-fluorophenyl)-3-{2-[(2-morpholin-4-ylethyl)amino]ethyl}-4,5-dihydro-3H-pyrimido[5′,4′:4,5]thieno[2,3-e]indazol-6-amine] | ≤ 5 µM | ≤ 5 µM |
| CCCc1nccn1CCn1cc2c(n1)CCc1c-2sc2ncnc(Nc3ccc(F)c(Cl)c3)c12 [Example 41, N-(3-chloro-4-fluorophenyl)-2-[2-(2-propyl-1H-imidazol-1-yl)ethyl]-4,5-dihydro-2H-pyrimido[5′,4′:4,5]thieno[2,3-e]indazol-6-amine] | ≤ 5 µM | ≤ 5 µM |
| O=C(CN1CCCC1)N1CCC(Cn2cc3c(n2)CCc2c-3sc3ncnc(Nc4ccc(OCc5cccc(F)c5)c(Cl)c4)c23)CC1 [Example 239, N-{3-chloro-4-[(3-fluorobenzyl)oxy]phenyl}-2-{[1-(pyrrolidin-1-ylacetyl)piperidin-4-yl]methyl}-4,5-dihydro-2H-pyrimido[5′,4′:4,5]thieno[2,3-e]indazol-6-amine] | ≤ 5 µM | ≤ 1 µM |
| CN(C)CCNCCn1cc2c(n1)CCc1c-2sc2ncnc(Nc3ccc(F)c(Cl)c3)c12 [Example 16, N′-(2-{6-[(3-chloro-4-fluorophenyl)amino]-4,5-dihydro-2H-pyrimido[5′,4′:4,5]thieno[2,3-e]indazol-2-yl}ethyl)-N,N-dimethylethane-1,2-diamine] | ≤ 5 µM | ≤ 5 µM |
| C[N+]1(C)CCC(n2cc3c(n2)CCc2c-3sc3ncnc(Nc4ccc(OCc5cccc(F)c5)c(Cl)c4)c23)CC1 [Example 225, 4-[6-({3-chloro-4-[(3-fluorobenzyl)oxy]phenyl}amino)-4,5-dihydro-2H-pyrimido[5′,4′:4,5]thieno[2,3-e]indazol-2-yl]-1,1-dimethylpiperidinium trifluoroacetate] | ≤ 50 µM | ≤ 5 µM |
| COCCNC(=O)Cn1ncc2c1CCc1c-2sc2ncnc(Nc3ccc(OCc4cccc(F)c4)c(Cl)c3)c12 [Example 207, 2-[6-({3-chloro-4-[(3-fluorobenzyl)oxy]phenyl}amino)-4,5-dihydro-3H-pyrimido[5′,4′:4,5]thieno[2,3-e]indazol-3-yl]-N-(2-methoxyethyl)acetamide] | ≤ 50 µM | ≤ 1 µM |
| CN1CCN(C(=O)Cn2ncc3c2CCc2c-3sc3ncnc(Nc4ccc(OCc5cccc(F)c5)c(Cl)c4)c23)CC1 [Example 205, N-{3-chloro-4-[(3-fluorobenzyl)oxy]phenyl}-3-[2-(4-methylpiperazin-1-yl)-2-oxoethyl]-4,5-dihydro-3H-pyrimido[5′,4′:4,5]thieno[2,3-e]indazol-6-amine] | ≤ 5 µM | ≤ 1 µM |
| OCCNCCn1cc2c(n1)CCc1c-2sc2ncnc(Nc3ccc(OCc4cccc(F)c4)c(Cl)c3)c12 [Example 61, 2-({2-[6-({3-chloro-4-[(3-fluorobenzyl)oxy]phenyl}amino)-4,5-dihydro-2H-pyrimido[5′,4′:4,5]thieno[2,3-e]indazol-2-yl]ethyl}amino)ethanol] | ≤ 5 µM | ≤ 1 µM |
| O=C(Cn1ncc2c1CCc1c-2sc2ncnc(Nc3ccc(OCc4cccc(F)c4)c(Cl)c3)c12)Nc1cccnc1 [Example 210, 2-[6-({3-chloro-4-[(3-fluorobenzyl)oxy]phenyl}amino)-4,5-dihydro-3H-pyrimido[5′,4′:4,5]thieno[2,3-e]indazol-3-yl]-N-pyridin-3-ylacetamide] | ≤ 5 µM | ≤ 1 µM |
| Fc1cccc(COc2ccc(Nc3ncnc4sc5c(c34)CCc3nn(CCN4CCNCC4)cc3-5)cc2Cl)c1 [Example 176, N-{3-chloro-4-[(3-fluorobenzyl)oxy]phenyl}-2-(2-piperazin-1-ylethyl)-4,5-dihydro-2H-pyrimido[5′,4′:4,5]thieno[2,3-e]indazol-6-amine] | ≤ 5 µM | ≤ 1 µM |
| COCCNCCn1cc2c(n1)CCc1c-2sc2ncnc(Nc3ccc(OCc4cccc(F)c4)c(Cl)c3)c12 [Example 59, N-{3-chloro-4-[(3-fluorobenzyl)oxy]phenyl}-2-{2-[(2-methoxyethyl)amino]ethyl}-4,5-dihydro-2H-pyrimido[5′,4′:4,5]thieno[2,3-e]indazol-6-amine] | ≤ 5 µM | ≤ 1 µM |
